Assay results as given in patent publication US20150224094A1, “ADMINISTRATION OF ACETYLCHOLINESTERASE INHIBITORS TO MITIGATE NEUROTOXIN-INDUCED PARALYSIS AND RESIDUAL NEUROMUSCULAR BLOCKADE” (priority 2012, published 2015).
Several values for one entry are separate records, joined by “and”; a condition that tells them apart may be missing. Identical values can stand only once. Entries after “also recorded” stand apart in the source; their conditions may differ.

What was measured:
[1] = tested on: mivacurium-induced neuromuscular blockade; experiment: Reversal of experimental mivacurium paralysis in a human by intranasal neostigmine aerosol
Description: Intravenous mivacurium is administered to a subject at concentrations of 5-200 mcg/kg/min to induce a safe, stable, low level neuromuscular block for a medical procedure. After completion of the procedure a total of 4 to 30 mg of neostigmine in divided doses—each dose separated by 15 minutes ([…] a 5% or a 6% solution) is administered intra-nasally and the regression of the block is followed quantitatively using acceleromyography or clinical measures such as the improvement in muscle strength as measured by thumb adduction, handgrip strength, teeth clenching, head raising and/or swallowing.
Neuromuscular block was quantified by using the train-of-four (TOF) ratio at the left adductor pollicis (AP) muscle measured by acceleromyography and as described previously. When the subject had significant oropharyngeal weakness and met electrophysiological criteria for Level 3 block a single dose of […] IV glycopyrrolate was administered to prevent bradycardia. Five minutes later 6% neostigmine dissolved in sterile water was administered using a primed atomizer (LMA MAD Nasal Device, LMA Corporation North America, San Diego, Calif.). A total dose of 27.6 mg, 0.37 mg/kg with half the volume insufflated in each nostril was given and the subject was left undisturbed for a total period of 10 min (Shaded area, FIG. 2) except for acceleromyographic recording. After the final set of measurements, the mivacurium infusion was terminated and neuromuscular function was allowed to return spontaneously. Emergency equipment and drugs including IV neostigmine and edrophonium (for reversal of mivacurium block) and glycopyrrolate and atropine (for early treatment of neostigmine toxicity) were at the bedside at all times.
Clinical measures of muscle function emphasized those that would be seen in the setting of neurotoxic envenomation that could be readily measured in out-of-hospital settings. The clinical assessments of muscle function were as follows: visual acuity, ease of swallowing, ability to protrude the tongue, diction, and ability to raise the head completely off the bed for more than 5 sec (neck flexion) with a postal scale (WeighMax, Industrial City, Calif., USA) placed under the subjects head to confirm complete elevation and peak respiratory flow measured using a Tru-Zone Peak Flow Meter (Monaghan, Plattsburg, N.Y.). […] The subject was blinded to all clinical and acceleromyographic data as well as to the mivacurium infusion rate and the levels of neuromuscular blockade.
The mivacurium infusion was maintained with unchanged infusion rate, enabling the investigators to determine the characteristics of neostigmine effect. Analysis of TOF ratios were made using TOFMON software (Schering-Plough Corporation, Kenilworth, N.J.) and considered stable if the values obtained 10 min apart differed less than 5% and accounting for repeated measures. Student's t-test results were calculated and reported as average values, standard deviation (SD), and 95% confidence intervals (95% CI).

[2] = Intra-nasal administration of glycopyrrolate and neostigmine, tolerability in a healthy volunteer
Description: In this experiment, the effect of intra-nasal administration of an mAChR inhibitor (glycopyrrolate) was determined using a healthy volunteer. 5 cc of glycopyrrolate (0.2 mg/mL) in sterile water was instilled in one nostril using an LMA sponge atomizer. […] 5 cc of 0.2 mg/mL glycopyrrolate mixed in DMSO was instilled in the other nostril.

[3] = tested on: myasthenic patients; settings: cited from earlier work
[4] = tested on: krait bite (Bungarus sp.); experiment: Case report: intranasal neostigmine aerosol for residual weakness after suspected krait bite; format: in vivo, human; settings: single dose 0.5 cc aqueous 5% neostigmine intranasal aerosol
Text: A healthy person was sleeping on a mud platform in their village and was awakened by a snake biting their left forearm. Within minutes, they developed headache and throat discomfort. They were transported by their family from the local clinic to the Emergency Department, conscious, but with progressive weakness. On physical examination, they had complete loss of gag reflex and rapidly worsening shortness of breath. There was no fang mark, ecchymosis or local swelling, and there were no other signs of coagulopathy such as bleeding gums or hematuria. They were unable to open their eyes and became unresponsive as emergent intubation was being performed without sedation. Polyvalent anti-snake venom (ASV) was administered concurrently. Based on the pattern of symptoms, lack of coagulopathy, normal renal function and normal bleeding and clotting times as well as lack of physical evidence of snakebite, krait bite (Bungarus sp.) was suspected. Twenty-four hours after ASV therapy and continuous mechanical ventilation, they were awake and alert, but with residual weakness, including profound ptosis, bilateral 6th nerve palsies and inability to lift their neck. […] Intranasal neostigmine was administered every four hours thereafter with IV atropine as prophylaxis against cholinergic toxicity. […]

[5] = tested on: Naja naja (Indian cobra) venom; experiment: Intranasal neostigmine in experimental Naja naja envenomation in mice; format: in vivo
Description: After pilot studies to assess the potency of reconstituted N. naja venom, 20 mice (21-28 g) were pseudo-randomized to receive IP injections of N. naja venom (approximately 2.5×LD50 for mice, Total N=20).
After 10 minutes, 15 animals received 5 microliters of 0.5 mg/mL neostigmine by nasal administration. Animals were observed continuously for 12 hours and assessed for signs of toxicity including respiratory distress, loss of spontaneous locomotor activity with the endpoint being death. Surviving animals were euthanized after 12 hours. Comparison of time to euthanasia across groups was performed and represented in Kaplan-Meier curves
Swiss albino mice were envenomed with cobra toxin (Naja naja) by intraperitoneal injection at doses >2.5×the LD50 and that killed 100% of untreated mice “LD100”. Intranasal neostigmine was given 10 minutes after envenomation to determine if this intervention could delay or treat the envenomation. 10/15 mice recovered completely and were still behaving normally >12 hours after envenoming. 5/15 mice in the treatment group died compared to 5/5 (100%) of the envenomation group. Mice were treated only once, with no attempt to re-treat with intranasal neostigmine.

[6] = intranasal neostigmine, constant mivacurium infusion
[7] = 3 cc of 1 mg/mL neostigmine into one nostril, after 2nd dose of glycopyrrolate

Compound: C[N+]1(C)CCC(OC(=O)C(O)(c2ccccc2)C2CCCC2)C1 (stereo not shown) [glycopyrrolate]
- reversal of neostigmine-associated bradycardia ([1]; IV glycopyrrolate): easily reversed
- effect on heart rate ([2]; 5 cc glycopyrrolate 0.2 mg/mL in sterile water, one nostril, LMA sponge atomizer): no effect
- effect on heart rate ([2]; 5 cc of 0.2 mg/mL glycopyrrolate mixed in DMSO, other nostril): no notable effect
- effect on nasal membranes ([2]; intranasal glycopyrrolate, noted prior to neostigmine): mild drying

Compound: CN(C)C(=O)Oc1cccc([N+](C)(C)C)c1 [neostigmine]
- clinical effect in myasthenic patients ([3]; 6% neostigmine methylsulfate intranasal, doses spaced by 15 minutes, alternating nostrils): salutary effects usually after the first dose
- puffs tolerated without ill effect ([3]; intranasal neostigmine at 15 minute intervals): up to 5 puffs
- 6th nerve palsies [4]: almost complete recovery
- time to complete resolution of ptosis ([4]; 24 h after ASV): ≤ 30 min
- local tolerability of intranasal spray ([1]; 6% neostigmine by atomizer): no stinging sensation or irritation
- Normalized TOF ratios (mean ± SD), adductor pollicis ([1]; after intranasal 6% neostigmine 27.6 mg (0.37 mg/kg), constant mivacurium infusion 2.5 mcg/kg/min, pre-neostigmine 0.56): 0.64±0.03
- Peak flow of baseline by the termination of the mivacurium infusion ([1]; after intranasal neostigmine, 135 min): 95%
- peak improvement adductor pollicis TOF ratio ([1]; after intranasal neostigmine, constant mivacurium infusion): 0.70
- time to feeling of facial and lingual muscles rearranging and tightening ([1]; after receiving intranasal neostigmine): ≤ 5 min
- time to full recovery of neck flexion ([1]; first test of neck flexion following neostigmine administration): 5 min
- clinically important muscular deficits / neuromuscular blockade [1, 6]: quickly relieved all clinically important muscular deficits; also recorded: antagonized the neuromuscular blockade
- time to full recovery of ability to swallow after neostigmine administration [1, 6]: ≤ 10 min
- bradycardia and concurrent symptoms ([1]; just prior to stopping the mivacurium infusion and after): asymptomatic bradycardia
- Peak Flow, average after neostigmine, of baseline ([1]; response to intranasal neostigmine, 72% under stable blockade): 91%
- Visual Acuity ([1]; response to intranasal neostigmine, >20/200 under stable blockade): Steady improvement and 20/20
- Ease of Swallowing ([1]; response to intranasal neostigmine, Difficult under stable blockade): Easy
- Tongue Protrusion ([1]; response to intranasal neostigmine, Moderately Difficult under stable blockade): Easy
- Diction ([1]; response to intranasal neostigmine, Poor under stable blockade): Improved
- Jaw Ptosis ([1]; response to intranasal neostigmine, Present under stable blockade): None
- Neck Flexion (Head Raise >5 s) ([1]; response to intranasal neostigmine, Unable under stable blockade): Easy
- signs or symptoms of muscarinic-mediated toxicity ([1]; while the mivacurium infusion was running): no signs or symptoms
- effect on heart rate [2, 7]: no effect
- salivation [2, 7]: no increase
- mice whose lives were prolonged or saved ([5]; 5 uL of 0.5 mg/mL IN neostigmine, 2.5× the 100% lethal dose (LD100) of Naja naja venom): 5/5
- effect on survival time ([5]; 5 uL of 0.5 mg/mL IN neostigmine, of Naja naja): trended toward prolonging the lives
- time to death or euthanasia ([5]; IN neostigmine N=15, controls 193 minutes): 553 min
- condition of surviving animals ([5]; IN neostigmine after N. naja venom): completely normal by 6 hours
- mice that died in the treatment group ([5]; IN neostigmine, 5/5 died in envenomation group): 5/15
- animals surviving / recovered of treated ([5]; single dose 5 uL of 0.5 mg/mL IN neostigmine 10 min after IP N. naja venom (approx. 2.5×LD50, 100% lethal in controls), 12 h observation): 10 of 15 and 10/15
- survival ([5]; single dose IN neostigmine 10 min after IP N. naja venom, N=15): 67%
